Values of other authors in US8067011B2, “Compositions and methods for treating B-cell malignancies” (Chimeros, Inc., priority 2006, dated 2011).

Columns and labels:
[1] = test system: diffuse large B-cell, CD20-positive, non-Hodgkin's lymphoma; conditions: added to CHOP or other anthracycline-based chemotherapy, first-line DLBCL
[2] = test system: relapsed or refractory, low-grade or follicular, CD20-positive, B-cell non-Hodgkin's lymphoma; conditions: low-grade or follicular NHL

For “Rituxan: naked antibody that specifically binds to CD20, used for B cell-derived lymphomas and leukemias”, the “extension of progression free survival over chemotherapy alone” value [1] is given as “about 1.5 years”, the “median duration of response, defined as progression free survival” value [2] is given as “about 1 year” and the response rate [2] is given as “about 50%”.
